Measured values: the NIST ThermoML archive (doi:10.1021/je050162g)

Assay: xn = mol fraction of the nth substance listed
Details: 101 kPa, Liquid; for viscosity: Capillary tube (Ostwald / Ubbelohde) method; for excess molar volume: Direct dilatometry; for speed of sound: Linear variable-path acoustic interferometer

C=COC(C)=O [vinyl acetate] + Cc1ccc(C)cc1
Details	excess molar volume, 303.15 K [m3/mol]	excess molar volume, 308.15 K [m3/mol]	excess molar volume, 313.15 K [m3/mol]	speed of sound, 303.15 K [m/s]	speed of sound, 308.15 K [m/s]	speed of sound, 313.15 K [m/s]	viscosity, 303.15 K [mPa·s]	viscosity, 308.15 K [mPa·s]	viscosity, 313.15 K [mPa·s]
x2 = 0	0	0	0	1095.9	1072.5	1055.7	0.384	0.361	0.332
x2 = 0.0767	-4.3e-08	2e-08	4.2e-08	1108.1	1084.9	1067.7	0.4	0.367	0.333
x2 = 0.1577	-6.8e-08	3.8e-08	7.2e-08	1122.6	1098.2	1080.6	0.415	0.376	0.341
x2 = 0.2421	-7.3e-08	5.7e-08	9.8e-08	1138.8	1112.3	1094.7	0.428	0.387	0.352
x2 = 0.3332	-7.2e-08	7.3e-08	1.21e-07	1156.6	1128	1110.6	0.44	0.399	0.365
x2 = 0.43	-6.1e-08	8.9e-08	1.41e-07	1175.5	1145.6	1128.6	0.453	0.414	0.38
x2 = 0.5319	-5.1e-08	9.6e-08	1.48e-07	1195.4	1165.3	1148.8	0.469	0.432	0.399
x2 = 0.6371	-2.7e-08	9.2e-08	1.4e-07	1215.8	1187.3	1171	0.489	0.453	0.422
x2 = 0.7488	-4e-09	7.6e-08	1.13e-07	1237.4	1211.9	1196.4	0.512	0.478	0.447
x2 = 0.8654	6e-09	4.4e-08	7.2e-08	1259.7	1238.6	1224.5	0.538	0.504	0.475
